{"source": "paper PMC3914206", "key": {"panel of 442 kinases [1]": {"target": "T1, panel of 442 kinases (Homo sapiens, UniProt P36888)", "T1 construct": "purchased KINOMEscan", "T1 sequence (P36888 27-993)": "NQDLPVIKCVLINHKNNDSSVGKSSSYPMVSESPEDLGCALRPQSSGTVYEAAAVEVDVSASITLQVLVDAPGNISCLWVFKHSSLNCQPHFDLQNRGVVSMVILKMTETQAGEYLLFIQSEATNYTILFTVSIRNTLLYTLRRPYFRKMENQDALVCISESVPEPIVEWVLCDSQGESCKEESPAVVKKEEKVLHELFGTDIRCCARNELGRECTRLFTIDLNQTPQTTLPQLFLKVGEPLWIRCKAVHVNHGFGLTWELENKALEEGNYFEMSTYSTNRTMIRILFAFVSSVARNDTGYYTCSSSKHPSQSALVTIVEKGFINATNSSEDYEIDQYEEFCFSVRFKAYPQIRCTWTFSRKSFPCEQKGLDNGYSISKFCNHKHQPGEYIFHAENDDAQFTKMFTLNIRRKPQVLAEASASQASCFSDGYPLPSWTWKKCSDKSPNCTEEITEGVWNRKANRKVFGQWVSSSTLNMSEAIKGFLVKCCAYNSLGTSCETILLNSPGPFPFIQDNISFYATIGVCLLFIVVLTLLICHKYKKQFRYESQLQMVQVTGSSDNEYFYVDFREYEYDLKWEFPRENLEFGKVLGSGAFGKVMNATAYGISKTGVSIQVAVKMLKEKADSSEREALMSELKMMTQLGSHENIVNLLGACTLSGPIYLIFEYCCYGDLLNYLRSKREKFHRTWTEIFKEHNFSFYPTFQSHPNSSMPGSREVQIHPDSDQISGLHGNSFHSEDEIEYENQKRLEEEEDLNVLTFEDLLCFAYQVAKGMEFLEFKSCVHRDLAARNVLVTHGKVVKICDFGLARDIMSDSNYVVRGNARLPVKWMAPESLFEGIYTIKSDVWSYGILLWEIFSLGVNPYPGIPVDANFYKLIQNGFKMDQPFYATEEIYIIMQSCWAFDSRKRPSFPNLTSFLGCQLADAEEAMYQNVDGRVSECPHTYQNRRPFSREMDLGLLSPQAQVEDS", "assay_type": "binding", "conditions": "Compound Concentration 10 µM", "from_the_text": "(§1) We assessed the selectivity of members of this scaffold using the KINOMEscan methodology across a near comprehensive panel of 442 kinases [[18,27]]."}, "panel of 442 kinases [2]": {"target": "T2, panel of 442 kinases (Homo sapiens, UniProt P46734)", "T2 construct": "purchased KINOMEscan", "T2 sequence (P46734 1-347)": "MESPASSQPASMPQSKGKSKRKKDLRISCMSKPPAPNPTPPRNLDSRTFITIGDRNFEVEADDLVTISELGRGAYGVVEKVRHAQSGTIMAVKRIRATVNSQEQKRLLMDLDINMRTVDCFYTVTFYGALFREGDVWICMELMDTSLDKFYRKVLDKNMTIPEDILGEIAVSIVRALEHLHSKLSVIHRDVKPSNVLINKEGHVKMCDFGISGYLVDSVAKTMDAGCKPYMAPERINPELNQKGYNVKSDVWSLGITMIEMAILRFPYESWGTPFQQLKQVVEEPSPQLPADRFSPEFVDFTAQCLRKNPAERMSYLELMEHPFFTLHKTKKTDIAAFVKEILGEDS", "assay_type": "binding", "conditions": "Compound Concentration 10 µM", "from_the_text": "as §1"}}, "data": [{"molecule": "COc1cc(C(=O)N2CCC(N3CCN(C)CC3)CC2)ccc1Nc1ncc2c(n1)N(C1CCCC1)c1ccccc1C(=O)N2C", "note": "[Compound 25, 11-cyclopentyl-2-((2-methoxy-4-(4-(4-methylpiperazin-1-yl)piperidine-1-carbonyl)phenyl)amino)-5-methyl-5H-benzo[e]pyrimido[5,4-b][1,4]diazepin-6(11H)-one]", "values": [{"measurement": "KINOMEscan: FLT3", "setting": "panel of 442 kinases [1]", "result": 100}, {"measurement": "KINOMEscan: MEK3", "setting": "panel of 442 kinases [2]", "result": 73}]}, {"molecule": "COc1cc(C(=O)N2CCC(N3CCN(C)CC3)CC2)ccc1Nc1ncc2c(n1)N1CCc3cccc(c31)C(=O)N2C", "note": "[Compound 24]", "values": [{"measurement": "KINOMEscan: MEK3", "setting": "panel of 442 kinases [2]", "result": 65}]}, {"molecule": "COc1cc(C(=O)N2CCC(N3CCN(C)CC3)CC2)ccc1Nc1ncc2c(n1)N(C)c1ccccc1C(=O)N2C", "note": "[15 (LRRK2-IN-1)]", "values": [{"measurement": "KINOMEscan: FLT3", "setting": "panel of 442 kinases [1]", "result": 100}, {"measurement": "KINOMEscan: MEK3", "setting": "panel of 442 kinases [2]", "result": 75}]}, {"molecule": "CCOc1cc(C(=O)N2CCC(N3CCN(C)CC3)CC2)ccc1Nc1ncc2c(n1)N(C1CCCC1)c1ccccc1C(=O)N2C", "note": "[Compound 26]", "values": [{"measurement": "KINOMEscan: FLT3", "setting": "panel of 442 kinases [1]", "result": 100}, {"measurement": "KINOMEscan: MEK3", "setting": "panel of 442 kinases [2]", "result": 86}]}]}
